The source of these data is the NIST ThermoML archive (doi:10.1016/j.jct.2016.05.005).

Data set [1] in a line: Molar enthalpy of transition or fusion. To be noted: Crystal; DSC.
The conditions of data set [2]: Crystal; DTA.

Molecules are shown by their SMILES. ± gives the expanded uncertainty stated by the source.

Turning to `COC(=O)N(OC)c1ccccc1COc1ccn(-c2ccc(Cl)cc2)n1` [Pyraclostrobin], the “Molar enthalpy of transition or fusion” value in data set [1] was 7.42 ± 0.311 kcal/mol. Besides, in data set [2], the Normal melting temperature amounted to 60.6 ± 0.6 °C.
